Assay results published in ChEMBL document CHEMBL5226379, “Hypouricemic Actions of the Pericarp of Mangosteen in Vitro and in Vivo” (J Nat Prod, 2023).

Legend:
Rattus norvegicus = test: Anti-hyperuricemic activity against potassium oxonate-induced hyperuricemic Sprague-Dawley rat model assessed as glomerular load of urate measured per body surface area of 0.0311 m2 at 2 mg/kg, po pre-administered via gavage twice daily for 5 times followed by potassium oxonate injection for 1 hrs prior to last dose and measured after 3 hrs; format: functional; settings: time 123 hrs
Homo sapiens = species: Homo sapiens; test: Inhibition of uricase (unknown origin) using uric acid as substrate at 112.5 mg/L preincubated with compounds for 15 mins followed by uric acid addition

Structure (SMILES): COc1c(O)cc2oc3cc(O)c(CC=C(C)C)c(O)c3c(=O)c2c1CC=C(C)C [MANGOSTIN]
- Activity (Rattus norvegicus): 3.6 µmol/min
- inhibition (Homo sapiens): 6.3%
